Results reported in patent US20070049564A1 (Wyeth, priority 2005, published 2007).
Converted amounts (≈) assume the structure as drawn. Read-outs that look alike come from different tables or passages of the source.

Tests used:
[1] = test system: E. coli GC 2236; test: MIC, broth microdilution; settings: Escherichia coli
[2] = test system: E. coli GC 3226; test: MIC, broth microdilution; settings: Escherichia coli
[3] = test system: E. coli GC 2233; test: MIC, broth microdilution; settings: Escherichia coli
[4] = test system: S. aureus GC 1079; test: MIC, broth microdilution; settings: Staphylococcus aureus
[5] = test system: S. agalactiae GC 4564; test: MIC, broth microdilution; settings: Streptococcus agalactiae
[6] = test system: E. faecalis GC 4555; test: MIC, broth microdilution; settings: Enterococcus faecalis
Procedure: Antimicrobial susceptibility testing. The in vitro activities of the antibiotics are determined by the broth microdilution method as recommended by the National Committee for Clinical Laboratory Standards (NCCLS) (1). Mueller-Hinton II broth (MHBII)(BBL Cockeysville, Md.) is the medium employed in the testing procedures. Microtiter plates containing serial dilutions of each antimicrobial agent are inoculated with each organism to yield the appropriate density (10^5 CFU/ml) in a 100 μl final volume. The plates are incubated for 18-22 hours at 35° C. in ambient air.
Representative compounds were first incubated in mouse serum for an hour prior to the in vitro testing against a panel of selected gram-positive and gram-negative bacteria strains. All compounds were also pre-incubated in water for an hour prior to testing as control. Representative compounds of Formula I were incubated in human serum prior to MIC determination.

[7] = test system: E. coli; test: Range of MIC for E. coli strains; settings: Escherichia coli
[8] = test system: E. coli GC 1073; test: MIC, broth microdilution; settings: Escherichia coli
[9] = test system: E. coli GC 2235; test: MIC, broth microdilution; settings: Escherichia coli
[10] = test system: Staph.; test: Range of MIC for Staph. strains, including MRSA; settings: Staphylococcus aureus
[11] = test system: E. faecium GC 4556; test: MIC, broth microdilution; settings: Enterococcus faecium
[12] = test system: S. aureus GC 6335; test: MIC, broth microdilution; settings: Staphylococcus aureus
[13] = test system: c. albicans GC 3066; test: MIC, broth microdilution
[14] = test system: E. coli GC 2271; test: MIC, broth microdilution; settings: Escherichia coli
[15] = test system: S. typhimurium GC 2172; test: MIC, broth microdilution; settings: Salmonella enterica, TYPHIMURIUM
[16] = test system: E. faecalis GC 2265; test: MIC, broth microdilution; settings: Enterococcus faecalis
[17] = test system: E. faecium GC 2243; test: MIC, broth microdilution; settings: Enterococcus faecium
[18] = test system: E. coli GC 2270; test: MIC, broth microdilution; settings: Escherichia coli
[19] = test system: S. aureus GC 6469; test: MIC, broth microdilution; settings: Staphylococcus aureus
[20] = test system: S. pyogenes GC 4563; test: MIC, broth microdilution; settings: Streptococcus pyogenes

CN(C)c1cc(NC(=O)CN(C(=O)OCOC(=O)C2CCC2)C(C)(C)C)c(O)c2c1C[C@H]1C[C@H]3[C@H](N(C)C)C(O)=C(C(N)=O)C(=O)[C@@]3(O)C(O)=C1C2=O [Example 62, ({[(2-{[(5aR,6aS,7S,10aS)-9-(aminocarbonyl)-4,7-bis(dimethylamino)-1,8,10a,11-tetrahydroxy-10,12-dioxo-5,5a,6,6a,7,10,10a,12-octahydrotetracen-2-yl]amino}-2-oxoethyl)(tert-butyl)amino]carbonyl}oxy)methyl cyclobutanecarboxylate]
MIC ([1]; GC2236, pre-incubation in human serum): 8 µg/mL (≈ 10.8 µM) | MIC ([1]; GC2236, pre-incubation in mouse serum): 0.5 µg/mL (≈ 0.674 µM) | MIC ([1]; GC2236, pre-incubation in water): 4 µg/mL (≈ 5.39 µM) | MIC ([2]; GC3226, pre-incubation in human serum): 4 µg/mL (≈ 5.39 µM) | MIC ([2]; GC3226, pre-incubation in mouse serum): 1 µg/mL (≈ 1.35 µM) | MIC ([2]; GC3226, pre-incubation in water): 8 µg/mL (≈ 10.8 µM) | MIC ([3]; GC2233, pre-incubation in human serum): 4 µg/mL (≈ 5.39 µM) | MIC ([3]; GC2233, pre-incubation in mouse serum): 2 µg/mL (≈ 2.7 µM) | MIC ([3]; GC2233, pre-incubation in water): 8 µg/mL (≈ 10.8 µM) | MIC ([4]; GC1079, pre-incubation in human serum): 0.5 µg/mL (≈ 0.674 µM) | MIC ([4]; GC1079, pre-incubation in mouse serum): 1 µg/mL (≈ 1.35 µM) | MIC ([4]; GC1079, pre-incubation in water): 0.5 µg/mL (≈ 0.674 µM) | MIC ([5]; GC4564, pre-incubation in human serum): 0.12 µg/mL (≈ 0.162 µM) | MIC ([5]; GC4564, pre-incubation in mouse serum): 0.25 µg/mL (≈ 0.337 µM) | MIC ([5]; GC4564, pre-incubation in water): 0.25 µg/mL (≈ 0.337 µM) | MIC ([6]; GC4555, pre-incubation in human serum): 0.5 µg/mL (≈ 0.674 µM) | MIC ([6]; GC4555, pre-incubation in mouse serum): 1 µg/mL (≈ 1.35 µM) | MIC ([6]; GC4555, pre-incubation in water): 1 µg/mL (≈ 1.35 µM) | MIC ([7]; 20 h, read-out: Range of MIC, E. coli (Mouse Serum)): 0.5 to 2 µg/mL (≈ 0.674 to 2.7 µM) | MIC ([7]; read-out: Minimum inhibitory concentration (MIC), E. coli (Human Serum)): 2 to 8 µg/mL (≈ 2.7 to 10.8 µM) | MIC ([8]; GC1073, pre-incubation in human serum): 4 µg/mL (≈ 5.39 µM) | MIC ([8]; GC1073, pre-incubation in mouse serum): 0.5 µg/mL (≈ 0.674 µM) | MIC ([8]; GC1073, pre-incubation in water): 16 µg/mL (≈ 21.6 µM) | MIC ([9]; GC2235, pre-incubation in human serum): 2 µg/mL (≈ 2.7 µM) | MIC ([9]; GC2235, pre-incubation in mouse serum): 0.5 µg/mL (≈ 0.674 µM) | MIC ([9]; GC2235, pre-incubation in water): 4 µg/mL (≈ 5.39 µM) | MIC ([10]; MRSA, read-out: Range of MIC, Staph (Mouse Serum)): 0.5 to 1 µg/mL (≈ 0.674 to 1.35 µM) | MIC ([10]; read-out: Minimum inhibitory concentration (MIC), Staph (Human Serum)): 0.5 µg/mL (≈ 0.674 µM) | MIC ([10]; read-out: Minimum inhibitory concentration (MIC), Staph (Water)): 0.25 to 1 µg/mL (≈ 0.337 to 1.35 µM) | MIC ([11]; GC4556, pre-incubation in human serum): 1 µg/mL (≈ 1.35 µM) | MIC ([11]; GC4556, pre-incubation in mouse serum): 1 µg/mL (≈ 1.35 µM) | MIC ([11]; GC4556, pre-incubation in water): 1 µg/mL (≈ 1.35 µM) | MIC ([12]; GC6335, pre-incubation in human serum): 0.5 µg/mL (≈ 0.674 µM) | MIC ([12]; GC6335, pre-incubation in mouse serum): 1 µg/mL (≈ 1.35 µM) | MIC ([12]; GC6335, pre-incubation in water): 0.5 µg/mL (≈ 0.674 µM) | MIC ([13]; Candida albicans, GC3066): > 64 µg/mL | MIC ([13]; pre-incubation in human serum): >64 UG/ML | MIC ([13]; pre-incubation in mouse serum): >64 UG/ML | MIC ([14]; GC2271, pre-incubation in human serum): 2 µg/mL (≈ 2.7 µM) | MIC ([14]; GC2271, pre-incubation in mouse serum): 1 µg/mL (≈ 1.35 µM) | MIC ([14]; GC2271, pre-incubation in water): 4 µg/mL (≈ 5.39 µM) | MIC ([15]; pre-incubation in human serum): 16 µg/mL (≈ 21.6 µM) | MIC ([15]; pre-incubation in mouse serum): 2 µg/mL (≈ 2.7 µM) | MIC ([15]; pre-incubation in water): > 64 µg/mL | MIC ([16]; GC2265, pre-incubation in human serum): 0.5 µg/mL (≈ 0.674 µM) | MIC ([16]; GC2265, pre-incubation in mouse serum): 0.5 µg/mL (≈ 0.674 µM) | MIC ([16]; GC2265, pre-incubation in water): 1 µg/mL (≈ 1.35 µM) | MIC ([17]; GC2243, pre-incubation in human serum): 0.5 µg/mL (≈ 0.674 µM) | MIC ([17]; GC2243, pre-incubation in mouse serum): 0.5 µg/mL (≈ 0.674 µM) | MIC ([17]; GC2243, pre-incubation in water): 0.5 µg/mL (≈ 0.674 µM) | MIC ([18]; GC2270, pre-incubation in human serum): 2 µg/mL (≈ 2.7 µM) | MIC ([18]; GC2270, pre-incubation in mouse serum): 0.5 µg/mL (≈ 0.674 µM) | MIC ([18]; GC2270, pre-incubation in water): 8 µg/mL (≈ 10.8 µM) | MIC ([19]; GC6469, pre-incubation in human serum): 0.5 µg/mL (≈ 0.674 µM) | MIC ([19]; GC6469, pre-incubation in mouse serum): 1 µg/mL (≈ 1.35 µM) | MIC ([19]; GC6469, pre-incubation in water): 1 µg/mL (≈ 1.35 µM) | MIC ([20]; GC4563, pre-incubation in human serum): 0.12 µg/mL (≈ 0.162 µM) | MIC ([20]; GC4563, pre-incubation in mouse serum): 0.25 µg/mL (≈ 0.337 µM) | MIC ([20]; GC4563, pre-incubation in water): 0.25 µg/mL (≈ 0.337 µM)
